Reference: US7264947B2, “Activity dependent neurotrophic factor III (ADNF III)” (United States of America, as represented by the Secretary …, priority 1997, dated 2007)
“And” between values parts separate entries of the source, which are not always exact repeats. Equal entries are not always repeated. “Also recorded” adds a separate entry of the source.

Columns and labels:
[1] = tested on: ApoE-deficient mice; experiment: developmental milestones (placing response, cliff avoidance) in ApoE-deficient mice; type: in vivo
Description: Animals (15-37 per experimental group, 5-8 per litter) were submitted to placing response assays daily following injection of: 1. saline (open circles, C57B6 mice=control, n=37, closed circles, ApoE deficient=ApoE, n=22). Experiments were repeated three times. Score indicates: 0=no reaction, 1=time to acquire a response shorter than 15 seconds; 2=time to acquire a response shorter than 10 seconds; 3=time to acquire a response shorter than 5 seconds. Age (days) indicate: the age of the tested animals in days. Results are mean±SEM.
ApoE knockout mice and normal controls were a gift from the late Prof. Shlomo Eisenberg of Tel Aviv University, originally provided by Dr. J. L. Breslow (Plump et al., Cell 71:343-353 (1992)). The ApoE knockout mice were obtained from embryonic stem cells OLA 129 in C57B6×FVB mice (as described). Age-matched controls were inbred C57B6 mice. Groups of mouse pups were treated from birth until the age of 14 days. Daily subcutaneous injections included: […] saline (days 1 through 4), […] saline (days 5 through 10) and […] saline (days 11-14).
Developmental milestones were measured using at least three dams with […] each for every experimental point. All observations were made between 12 noon and 4 pm. From day one through day six, mice were weighed and tested 60 min. after the daily injection. Placing is a behavioral parameter that is measured as the time elapsing between contact of the foot against the edge of an object and its placing on the top of the same object.
Further measurements in the Apo-E-deficient mouse included assessments of the time of onset of developmental milestones of behavior. […] A significant difference was observed among the treatment groups on the first day of testing (P<0.0001), with inbred C57B6 mice developing faster than the ApoE-deficient animals. […] NAP-treated animals were the fastest.

[2] = tested on: ApoE-deficient mice; experiment: water maze, ApoE-deficient and control mice after treatment for the first two weeks of life; type: in vivo
Method: Two daily water maze trials were performed on three week-old animals. Groups tested were: 1. control animals injected with vehicle for the first two weeks of life (35 animals of six different litters, with 5-7 animals from each litter, open circles); 2. ApoE-deficient animals injected with vehicle for the first two weeks of life (18 animals derived from three different litters, with 5-7 pups per litter, closed circles); 3. control animals chronically treated with NAP for the first two weeks of life (14 animals derived from three different litters, open triangles); and 4. ApoE-deficient mice chronically treated with NAP for the first two weeks of life (19 animals derived from three different litters, open rectangles). The figure depicts latency (of the second daily trial), measured in seconds, to reach the hidden platform 0.5 min. after being on it. Tests were performed over five consecutive days, and then with a two day delay tested for one additional day. ApoE=ApoE-deficient animals. There was no differences between animals treated with vehicle and untreated animals (data not shown). Statistical comparisons shown were made: 1. between ApoE-deficient and controls; 2. between ApoE-treated with NAP and ApoE-treated with vehicle; and 3. between control-treated with NAP and control-treated with vehicle (*P<0.001; **P<0.03; ***P<0.002). […]

[3] = tested on: ADNF III mRNA; experiment: northern blot of ADNF III mRNA in brain of ApoE-deficient mice; type: in vivo; settings: 28-day-old ApoE-deficient mice, daily injections for the first two weeks of life
Method: FIG. 9 illustrates northern blot identification of ADNF III mRNA. RNA was extracted from the brains of 28-day-old apolipoprotein E-deficient mice (E) treated with saline for the first two weeks of life or with NAP (E+N), control mice (C) were treated with saline. RNA was subjected to northern blot hybridization with a PCR-labeled ADNF III specific probe (α-^32P-dCTP, Amersham, 3000 Ci/mmol) (see FIG. 2) in comparison to an actin-specific probe (Gozes et al., Mol. Brain Res. 2:137-148 (1987)).
b. Hybridization: The blots were prehybridized for two hours at 55° C. and were hybridized with a specific complementary DNA probe for the mouse ADNF III cDNA (a PCR product obtained using the following primers: 61-79 and the complementary strand from position 438-455, which are described in detail below). The labeled probe was prepared by random priming and incubated with the blot for 16 hours at 55° C. Prehybridization and hybridization solutions (12 ml/blot) contained the following: 50% formamide (deionized using mixed bed resin, Sigma), 50 mM sodium phosphate buffer (pH 6.5), 0.8 M NaCl, 1 mM EDTA, 5× Denhart's reagent (0.05% BSA, 0.05% polyvinylpyrrolidone and 0.05% Ficoll), 0.1% SDS and […] poly(A). The labeled probe was dissolved in 12 ml of hybridization solution and added to the prehybridization mixture. […]

[4] = tested on: cerebral cortical cultures; experiment: neuroprotection against β-amyloid peptide (25-35) neurotoxicity in cerebral cortical cultures; type: cell-based, newborn rats; settings: 25 μM β-amyloid fragment 25-35, five days; P<0.01
[5] = tested on: cerebral cortical cultures; experiment: neuroprotection against NMDA toxicity in cerebral cortical cultures; type: cell-based, newborn rats; settings: NMDA 10 μM
[6] = tested on: cerebral cortical cultures; experiment: neuroprotection against gp120 toxicity in cerebral cortical cultures; type: cell-based, newborn rats; settings: 1 pM gp120 (RFII isolate)
[7] = tested on: AF64A-treated animals; experiment: water maze, learning and memory deficiencies associated with cholinergic blockade (AF64A); type: in vivo; settings: rats, cholinotoxin AF64A, peptide intranasally; listed as NAPVSIPQ
Method: Protection against learning and memory deficiencies associated with cholinergic blockade was evaluated. Cholinergic blockade was obtained in rats by administration of the cholinotoxin AF64A, NAPVSIPQ (SEQ ID NO:6), which was administered intranasally and the water maze experiments were performed as before (Gozes et al., Proc. Natl. Acad. Sci. USA 93:427-432 (1996), the teachings of which are incorporated herein by reference).
The ability of ADNF III polypeptides to protect against learning and memory deficiencies associated with cholinergic blockade was also investigated. Cholinergic blockade was obtained in rats by administration of the cholinotoxin AF64A, NAPVSIPQ (SEQ ID NO:6) (termed NAP in FIG. 8). NAPVSIPQ (SEQ ID NO:6) was administered intranasally and the water maze experiments were performed as before (Gozes et al., Proc. Natl. Acad. Sci. USA 93:427-432 (1996)).

In the case of Asn-Ala-Pro-Val-Ser-Ile-Pro-Gln [NAP], the “placing response from the second postnatal day onwards” value ([1]; P<0.0001) is reported as “best performers”, the “acquisition of the placing response and the cliff avoidance response” value ([1]; daily injection) is reported as “showed acceleration” and the “marked improvement of placing response at the first day of treatment” value ([1]; tested 60 min. after injection) is reported as “marked improvement; also recorded: the fastest”. The “water maze performance (latency to hidden platform, second daily trial)” value ([2]; ApoE-deficient mice, treated first two weeks of life, tested from 21 days) was “performed as well as control animals; also recorded: ameliorated”, the “water maze performance (latency to hidden platform, second daily trial)” value ([2]; control animals chronically treated for the first two weeks of life) was “improved their performance” and the “ADNP mRNA content” value [3] was “did not change”. For the same substance, the “concentrations of significant neuroprotection against β-amyloid” value [4] was 10^−16 M and 10^−15 M, the “concentrations of significant neuroprotection against NMDA” value [5] was > 10^−16 M and the “concentrations of significant neuroprotection against gp120” value [6] was 10^−15-10^−10 M. The “learning and memory in water maze” value [7] was “showed improvement in their learning and memory capacities and behaved as control animals”.
